A short description of series [1]: Bulk density (loose and tapped) of CI-1027 lots. As to conditions: for Bulk Density Loose / Bulk Density Tapped: per lot.
Another series deals with monkey hepatocytes. The series is described as follows: In vitro metabolism in monkey hepatocytes using radiolabeled compound. Format: in vitro ADME.
For a further series, the system named is dog hepatocytes. The series can be described thus: In vitro metabolism in dog hepatocytes using radiolabeled compound. Format: in vitro ADME.
A short description of series [2]: Pharmacokinetics of CI-1027, species not stated. The series is classed as in vivo.
In the next series the test system is plasma proteins. The series is described as follows: In vitro binding to plasma proteins. The series is classed as in vitro ADME.
For series [3] the following is noted: in vivo. How it is done: Metabolite profiling is performed by HPLC with radiometric detection and metabolites arc identified by LC/RAM/MS/MS.
Series [4] is described as follows: Mean recovery of 14C dose in excreta, intact and bile-fistula cannulated rats. The series is classed as in vivo, rat. Particulars: 10 mg/kg.
Series [5] can be described thus: Mean recovery of 14C dose in excreta, intact and bile-fistula cannulated monkeys. Particulars: 10 mg/kg. Format: in vivo, monkey.
The test system of another series is rat hepatocytes. The series can be described thus: In vitro metabolism in rat hepatocytes using radiolabeled compound. Format: in vitro ADME.
The nature of series [6]: Pharmacokinetics of CI-1027 in rat. Format: in vivo.
For series [7], the system named is Lp(a) and other lipoprotein parameters. The series can be described thus: Effects on Lp(a) and other lipoprotein parameters, oral gavage, transgenic mouse study. On the set-up: maximum decrease in total plasma cholesterol: dose or concentration left out as unconfirmed. The series is classed as in vivo, Lp(a) transgenic mice. As for the experimental part: (§1) The effects of CI-1027 of Formula II, Crystalline Form 1, on Lp(a) and other lipoprotein parameters in two models of elevated Lp(a) were determined by the following in vivo assays
(§2) Cynomolgus macaque monkeys and Lp(a) transgenic mice are dosed with CI-1027 at 3, 10, 30, 100, or 300 mg/kg for 2 weeks by oral gavage. […] In the transgenic mouse study, female mice were allocated into five groups with equivalent Lp(a) levels, and dosed by oral gavage with either vehicle alone or vehicle plus CI-1027 (3, 10, 30, and 100 mg/kg/day). Blood is sampled weekly (2 weeks prior to treatment, 2 weeks on treatment).

The nature of series [8]: Pharmacokinetics of CI-1027 in monkey. Format: in vivo.
Series [9] is described as follows: Pharmacokinetics of CI-1027 in dog. The series is classed as in vivo.
The subject of series [10] is Lp(a) and other lipoprotein parameters. The series can be described thus: Effects on Lp(a) and other lipoprotein parameters, oral gavage for 2 weeks, monkeys. Format: in vivo, Cynomolgus macaque monkeys. How it is done: as §1, §2
Series [11] is described as follows: Observed electrostatic charge retention of bulk product. The series is classed as physicochemical. As to conditions: compared with amorphous product / salts dried without humidification. From the text: Additional analysis on the post-humidification dried dialkylcarboxylic acid ether monocalcium salt (II) is indicative of the formation of a salt which is associated with between about 0.1 and about 1 molar equivalent of water per equivalent of dialkylcarboxylic acid ether calcium salt (II), as shorn in FIGS. 1 and 15, for example.

The nature of series [12]: Salt form and hygroscopic status: comparison of salts of 72953. Format: physicochemical. Particulars: after complete drying. From the text: Following the general procedure of Example 1, 72953 was reacted with sodium hydroxide, potassium hydroxide, and acetylcholine in stoichiometric ratios of 1:1 per dialkanoic acid molecule, and 2:1 per dialkanoic acid molecule. The properties of the solids thus prepared, following complete drying, were compared to the calcium salt (CI-1027) from Example 1.

Setting [13] is: in vivo, other: intravenous (IV) and per orals (PO), intravenous (IV) and per orals (PO), read-out: apparent elimination half-life.

Counter-ions that a name gives are not always drawn.

What is called half-life is the time in which the quantity being followed falls by half.

`CC(C)(CCCCOCCCCC(C)(C)C(=O)[O-])C(=O)[O-].[Ca+2]` [listing 1 of 2 here]: in series [1], the “Bulk Density Loose” value is 0.336 g/mL and the “Bulk Density Tapped” value stood at 0.439 g/mL.

Consider `CC(C)(CCCCOCCCCC(C)(C)C(=O)[O-])C(=O)[O-].[Ca+2]` [listing 2 of 2 here], for which, in series [1] (amorphous form), the “bulk density, average” value is listed as “about 0.3 gm/mL”.

With “6-(5-carboxy-5-methyl-hexyloxy)-2,2-dimethylhexanoic acid monocalcium salt hydrate, Crystalline Form 1 [Example 1]”, the “bulk density following tapping, average” value in series [1] (highly crystalline salt after humidification process) was “about 0.4 g/mL”.

For the compound `CC(C)(CCCCOCCCCC(C)(C)C(=O)[O-])C(=O)[O-].[Ca+2]` [CD-3055], in series [1], the “Bulk Density Loose” value is on record as 0.280 g/mL and the “Bulk Density Tapped” value was found to be 0.315 g/mL.

As for `CC(C)(CCCCOCCCCC(C)(C)C(=O)[O-])C(=O)[O-].[Ca+2]` [CD-3082], in series [1], the “Bulk Density Loose” value was found to be 0.234 g/mL and the “Bulk Density Tapped” value was 0.337 g/mL.

As to `CC(C)(CCCCOCCCCC(C)(C)C(=O)[O-])C(=O)[O-].[Ca+2]` [CD-3102], in [1], the “Bulk Density Loose” value came out at 0.215 g/mL and the “Bulk Density Tapped” value amounted to 0.270 g/mL.

As for `CC(C)(CCCCOCCCCC(C)(C)C(=O)[O-])C(=O)[O-].[Ca+2]` [CD-3103], in series [1], the “Bulk Density Loose” value is reported as 0.343 g/mL and the “Bulk Density Tapped” value worked out at 0.484 g/mL.

As to `CC(C)(CCCCOCCCCC(C)(C)C(=O)[O-])C(=O)[O-].[Ca+2]` [CD-3111], in series [1], the “Bulk Density Loose” value came to 0.218 g/mL and the “Bulk Density Tapped” value is reported as 0.264 g/mL.

As to `CC(C)(CCCCOCCCCC(C)(C)C(=O)[O-])C(=O)[O-].[Ca+2]` [CD-3135], in series [1], the “Bulk Density Loose” value stood at 0.242 g/mL and the “Bulk Density Tapped” value is 0.379 g/mL.

Take `CC(C)(CCCCOCCCCC(C)(C)C(=O)[O-])C(=O)[O-].[Ca+2]` [CD-3221A]: in series [1], the “Bulk Density Loose” value is 0.372 g/mL and the “Bulk Density Tapped” value is 0.521 g/mL.

`CC(C)(CCCCOCCCCC(C)(C)C(=O)[O-])C(=O)[O-].[Ca+2]` [CD-3243]: in series [1], the “Bulk Density Loose” value is recorded as 0.235 g/mL and the “Bulk Density Tapped” value worked out at 0.300 g/mL.

Take `CC(C)(CCCCOCCCCC(C)(C)C(=O)[O-])C(=O)[O-].[Ca+2]` [CI-1027, 6-(5-carboxy-5-methyl-hexyloxy)-2,2-dimethylhexanoic acid monocalcium salt (1:1)]: the “14C peaks found in hepatocyte incubation” value is “two major ^14C peaks, intact drug, and a glucuronide conjugate” in the series with monkey hepatocytes; “two major ^14C peaks, intact drug, and a glucuronide conjugate” with dog hepatocytes; “two major ^14C peaks, intact drug, and a glucuronide conjugate” in the series with rat hepatocytes. For the same compound, the Oral bioavailability entry in series [2] is “appeared to be high”. The enterohepatic recirculation result in series [2] is on record as “seemed to undergo enterohepatic recirculation”. Also, the linearity of pharmacokinetics entry in series [2] was “nonlinear”. Moreover, the “In vitro binding to plasma proteins” value in the series on plasma proteins was “species and concentration dependent”. In the series with plasma proteins, the primary binding protein entry is on record as “Albumin”. Besides, the “metabolite detected in bile and urine” value in [3] is reported as “acyl-glucuronide is detected”. Further, in [3], the “share of plasma radioactivity that was unchanged drug” value is given as roughly 100%. Further, the “Mean recovery in bile” value worked out at 87.5 percent ^14C dose in [4] (Fistula Rat) and 42.0 percent ^14C dose in series [5] (Fistula Monkey). Moreover, the “Mean recovery in feces” value is 0.72 percent ^14C dose in series [4] (Fistula Rat), 56.9 percent ^14C dose in [4] (Intact Rat), 3.82 percent ^14C dose in [5] (Fistula Monkey) and 17.3 percent ^14C dose in series [5] (Monkey (intact)). Besides, the “Mean recovery in urine” value in series [4] (Fistula Rat) is 10.5 percent ^14C dose; in [4] (Intact Rat), 37.0 percent ^14C dose; in [5] (Fistula Monkey) it was 62.2 percent ^14C dose; in [5] (Monkey (intact)), 78.1 percent ^14C dose. In addition, the Mean total recovery in series [4] (Fistula Rat) was 98.7 percent ^14C dose; in series [4] (Intact Rat), 93.9 percent ^14C dose; in series [5] (Fistula Monkey), 108 percent ^14C dose; in series [5] (Monkey (intact)), 95.4 percent ^14C dose. Moreover, the absorption entry in series [6], in series [8] and in series [9] was “rapidly absorbed” in each case. The half-life is 5 to 7 h in series [6] (setting [13]), 9 to 15 h in [8] (setting [13]) and 17 to 31 h in series [9] (setting [13]). Also, the “decrease in plasma Lp(a) compared to mice dosed with vehicle alone” value in series [7] (female mice, 3 mg/kg/day oral gavage, after 1 week) is reported as −15%; in series [7] (female mice, 10 mg/kg/day oral gavage, after 1 week), −41%; in [7] (female mice, 30 mg/kg/day oral gavage, after 1 week), −54%; in [7] (female mice, 100 mg/kg/day oral gavage, after 1 week), −61%. Further, the “HDL cholesterol (lipoprotein profiles by HPLC)” value in series [7] (female mice, after 1 week) is “remained unchanged”. Further, in [7] (female mice, after 1 week), the “LDL cholesterol (lipoprotein profiles by HPLC)” value is recorded as “significant decreases”. The “decrease in plasma apoB” value in series [7] (female mice, after 1 week) is given as “up to 30%”. Also, the “maximum decrease in total plasma cholesterol” value in [7] (female mice, after 1 week) stood at 32%. The “ratio of HDL cholesterol to VLDL+LDL cholesterol” value in series [7] (with treatment, control value 0.39) is on record as 0.65. The “Lp(a) lowering” value is given as −9% in series [10] (3 mg/kg/day); −23% in series [10] (10 mg/kg/day); −64% in [10] (30 mg/kg/day); −68% in series [10] (100 mg/kg/day); −87% in [10] (300 mg/kg/day). Moreover, the HDL cholesterol entry in series [10] (3-300 mg/kg) is “decreased”. In series [10] (3-300 mg/kg), the total plasma cholesterol result is “decreased”.

With `CC(C)(CCCCOCCCCC(C)(C)C(=O)O)C(=O)O` [Example 1, 6-(5-carboxy-5-methyl-hexyloxy)-2,2-dimethylhexanoic acid monocalcium salt hydrate, Crystalline Form 1], the “electrostatic character of bulk product” value in series [11] (listed as CI-1027 hydrate Crystalline Form 1) is recorded as “less electrostatic than the amorphous form”; in [11] (listed as Crystal Form 1), “less capable of retaining an electrostatic charge”. Moreover, the “Physical Properties of Solid (hygroscopic status)” value (“Physical Properties of Solid” for short) in [12] is recorded as “None to Slight Hygroscopic”.

For the compound `CC(C)(CCCCOCCCCC(C)(C)C(=O)O)C(=O)O` [Example 12, 6-(5-carboxy-5-methyl-hexyloxy)-2,2-dimethylhexanoic acid monocalcium salt. Crystalline Form 2], in [11] (listed as Crystal Form 2, monocalcium salt), the “electrostatic character of bulk product” value is listed as “less capable of retaining an electrostatic charge”.

Regarding `CC(C)(CCCCOCCCCC(C)(C)C(=O)[O-])C(=O)[O-].C[N+](C)(C)CCO.C[N+](C)(C)CCO` [di-choline], the “Physical Form” value in [12] is “Oil”.

In the case of `CC(C)(CCCCOCCCCC(C)(C)C(=O)[O-])C(=O)[O-].[K+].[K+]` [di-potassium], in [12], the “Physical Form” value is reported as “Solid” and the “Physical Properties of Solid” value is “Very Hygroscopic”.

Turning to `CC(C)(CCCCOCCCCC(C)(C)C(=O)[O-])C(=O)[O-].[Na+].[Na+]` [di-sodium], in series [12], the “Physical Form” value is listed as “Solid” and the “Physical Properties of Solid” value is reported as “Very Hygroscopic”.

Consider `CC(C)(CCCCOCCCCC(C)(C)C(=O)O)C(=O)[O-].C[N+](C)(C)CCO` [mono-choline], for which, in series [12], the “Physical Form” value is given as “Oil”.

The values are drawn from patent publication US6861555B2, “Calcium dicarboxylate ethers, methods of making same, and treatment of vascular disease and diabetes therewith” (Warner-Lambert Company, priority 2000, dated 2005).
